In patent US12428648B2, “Compositions comprising peptides that block transmission of orthotospoviruses” (priority 2019, dated 2025):
No end group written: not given here.

Tests used:
[1] = Dissolution of the synthesized peptides; type: physicochemical; details: molecular biology grade water; 25% acetic acid for A229
α5β1 = α5β1 (Homo sapiens, UniProt P05556+P08648); details: Hersel et al., 2003; cited from earlier work
αvβ3 = αvβ3 (Homo sapiens, UniProt P05106+P06756); details: Hersel et al., 2003; cited from earlier work
Sequence of αvβ3 (P06756 31-1048): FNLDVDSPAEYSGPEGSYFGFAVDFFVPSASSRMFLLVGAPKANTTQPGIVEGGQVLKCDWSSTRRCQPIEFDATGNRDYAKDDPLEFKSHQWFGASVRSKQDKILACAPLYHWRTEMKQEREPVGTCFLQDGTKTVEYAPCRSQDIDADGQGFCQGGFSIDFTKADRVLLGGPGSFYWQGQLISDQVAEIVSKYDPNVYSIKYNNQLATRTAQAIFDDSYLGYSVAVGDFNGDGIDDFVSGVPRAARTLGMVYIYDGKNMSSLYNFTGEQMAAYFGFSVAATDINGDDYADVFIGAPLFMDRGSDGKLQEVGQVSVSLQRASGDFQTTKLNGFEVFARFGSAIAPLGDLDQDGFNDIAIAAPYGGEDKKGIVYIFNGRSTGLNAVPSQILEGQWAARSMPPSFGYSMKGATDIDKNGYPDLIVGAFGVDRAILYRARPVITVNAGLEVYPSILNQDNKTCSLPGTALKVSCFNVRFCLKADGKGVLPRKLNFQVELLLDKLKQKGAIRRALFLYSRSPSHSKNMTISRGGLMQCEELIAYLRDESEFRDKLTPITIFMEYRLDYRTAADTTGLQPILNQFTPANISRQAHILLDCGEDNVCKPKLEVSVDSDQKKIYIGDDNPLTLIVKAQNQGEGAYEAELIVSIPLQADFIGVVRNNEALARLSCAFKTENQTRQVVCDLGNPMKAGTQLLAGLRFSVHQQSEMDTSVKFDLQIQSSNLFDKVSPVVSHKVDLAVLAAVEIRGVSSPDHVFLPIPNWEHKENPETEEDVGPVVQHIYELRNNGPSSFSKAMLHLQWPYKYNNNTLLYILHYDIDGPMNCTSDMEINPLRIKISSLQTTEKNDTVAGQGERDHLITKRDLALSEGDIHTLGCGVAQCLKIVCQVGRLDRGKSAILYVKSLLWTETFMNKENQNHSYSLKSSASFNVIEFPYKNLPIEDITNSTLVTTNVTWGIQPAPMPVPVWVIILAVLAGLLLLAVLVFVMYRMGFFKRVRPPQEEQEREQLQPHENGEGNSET
Sequence of αvβ3 (P05106 27-788): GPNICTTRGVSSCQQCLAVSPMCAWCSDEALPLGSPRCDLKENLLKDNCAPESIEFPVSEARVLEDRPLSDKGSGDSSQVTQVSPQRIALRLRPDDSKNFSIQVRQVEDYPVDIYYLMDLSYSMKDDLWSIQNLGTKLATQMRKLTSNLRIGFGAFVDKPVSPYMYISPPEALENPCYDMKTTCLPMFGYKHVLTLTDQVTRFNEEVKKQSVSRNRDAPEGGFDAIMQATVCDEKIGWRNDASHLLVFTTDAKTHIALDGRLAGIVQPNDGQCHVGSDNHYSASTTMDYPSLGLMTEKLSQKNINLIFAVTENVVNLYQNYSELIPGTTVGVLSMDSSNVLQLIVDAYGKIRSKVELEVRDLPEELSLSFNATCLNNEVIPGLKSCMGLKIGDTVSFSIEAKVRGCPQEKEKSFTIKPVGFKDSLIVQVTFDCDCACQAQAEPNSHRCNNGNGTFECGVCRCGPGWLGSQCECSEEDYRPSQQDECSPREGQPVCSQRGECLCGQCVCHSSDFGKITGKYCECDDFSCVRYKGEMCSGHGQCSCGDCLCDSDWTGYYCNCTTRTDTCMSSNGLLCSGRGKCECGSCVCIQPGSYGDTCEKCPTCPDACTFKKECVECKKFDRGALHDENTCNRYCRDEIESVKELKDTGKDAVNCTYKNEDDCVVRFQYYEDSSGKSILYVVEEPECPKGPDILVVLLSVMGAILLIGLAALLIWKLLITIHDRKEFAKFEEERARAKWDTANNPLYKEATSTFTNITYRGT

Sequence of α5β1 (P08648 42-1049): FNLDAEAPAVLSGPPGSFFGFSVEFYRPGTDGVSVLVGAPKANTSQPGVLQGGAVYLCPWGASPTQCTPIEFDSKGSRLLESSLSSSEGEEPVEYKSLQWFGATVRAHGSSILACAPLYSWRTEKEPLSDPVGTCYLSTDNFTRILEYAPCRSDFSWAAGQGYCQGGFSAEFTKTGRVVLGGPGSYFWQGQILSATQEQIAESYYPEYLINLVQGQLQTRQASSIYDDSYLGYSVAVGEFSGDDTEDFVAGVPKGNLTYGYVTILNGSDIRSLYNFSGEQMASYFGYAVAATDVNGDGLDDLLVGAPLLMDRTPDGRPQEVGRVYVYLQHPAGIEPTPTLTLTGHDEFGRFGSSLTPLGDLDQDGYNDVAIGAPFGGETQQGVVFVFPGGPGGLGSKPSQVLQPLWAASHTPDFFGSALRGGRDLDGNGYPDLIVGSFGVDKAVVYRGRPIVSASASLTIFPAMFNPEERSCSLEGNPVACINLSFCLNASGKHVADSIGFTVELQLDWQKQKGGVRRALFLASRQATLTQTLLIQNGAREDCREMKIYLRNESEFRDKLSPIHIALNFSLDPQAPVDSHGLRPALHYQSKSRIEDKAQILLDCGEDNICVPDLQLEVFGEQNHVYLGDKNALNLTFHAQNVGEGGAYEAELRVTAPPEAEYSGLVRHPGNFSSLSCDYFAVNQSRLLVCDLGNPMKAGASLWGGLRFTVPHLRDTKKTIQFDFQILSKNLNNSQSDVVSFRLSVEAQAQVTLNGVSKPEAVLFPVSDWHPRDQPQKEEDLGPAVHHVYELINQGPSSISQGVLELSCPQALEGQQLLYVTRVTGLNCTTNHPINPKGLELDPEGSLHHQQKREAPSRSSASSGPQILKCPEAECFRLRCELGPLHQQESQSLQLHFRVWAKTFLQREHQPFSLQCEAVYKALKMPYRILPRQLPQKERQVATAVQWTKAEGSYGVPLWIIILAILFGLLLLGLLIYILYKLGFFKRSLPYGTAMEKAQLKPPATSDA
Sequence of α5β1 (P05556 21-798): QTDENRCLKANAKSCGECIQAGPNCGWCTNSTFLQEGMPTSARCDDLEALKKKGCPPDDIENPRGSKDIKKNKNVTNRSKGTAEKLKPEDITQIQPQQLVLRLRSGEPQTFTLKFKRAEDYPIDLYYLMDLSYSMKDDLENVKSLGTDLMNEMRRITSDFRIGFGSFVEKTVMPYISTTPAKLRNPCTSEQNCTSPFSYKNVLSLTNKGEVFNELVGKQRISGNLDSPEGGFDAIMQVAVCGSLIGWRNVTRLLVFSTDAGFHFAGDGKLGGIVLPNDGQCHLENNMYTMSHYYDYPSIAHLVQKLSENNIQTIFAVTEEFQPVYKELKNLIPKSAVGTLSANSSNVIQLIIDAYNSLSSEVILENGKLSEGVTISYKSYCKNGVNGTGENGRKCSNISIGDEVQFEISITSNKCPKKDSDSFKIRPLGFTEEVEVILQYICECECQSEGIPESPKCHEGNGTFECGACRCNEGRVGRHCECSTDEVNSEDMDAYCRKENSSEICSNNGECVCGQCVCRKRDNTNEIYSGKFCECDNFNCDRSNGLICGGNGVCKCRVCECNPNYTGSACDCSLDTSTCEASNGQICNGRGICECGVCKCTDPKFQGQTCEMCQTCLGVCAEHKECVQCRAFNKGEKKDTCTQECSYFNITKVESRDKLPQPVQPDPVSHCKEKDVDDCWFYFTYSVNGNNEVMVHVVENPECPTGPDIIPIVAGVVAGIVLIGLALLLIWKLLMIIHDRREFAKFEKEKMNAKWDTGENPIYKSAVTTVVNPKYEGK

RLTGECAITKVSLTN [A229]
solubility of the peptide, in words [1]: did not dissolve in either water or 25% acetic acid

GRGDSP
integrin binding preference, in words (α5β1): bind preferentially to α5β1

NASIRADHEVSQE [RAD]
solubility of the peptide, in words [1]: insoluble in H2O

NASIAADHEVSQE [AAD]
solubility of the peptide, in words [1]: insoluble in H2O

NASIAGAHEVSQE [AGA]
solubility of the peptide, in words [1]: dissolved in molecular biology grade water

RLTGECNITKVSLTN [N229]
solubility of the peptide, in words [1]: dissolved in molecular biology grade water

NASIRGDHEVSQE [RGD]
solubility of the peptide, in words [1]: dissolved in molecular biology grade water

NASIAAAHEVSQE [AAA]
solubility of the peptide, in words [1]: dissolved in molecular biology grade water

GPenGRGDSPCA
integrin selectivity, in words (αvβ3): selective for αvβ3

NASIAGDHEVSQE [AGD]
solubility of the peptide, in words [1]: dissolved in molecular biology grade water

NASIRGAHEVSQE [RGA]
solubility of the peptide, in words [1]: dissolved in molecular biology grade water

RGDSPASSKP
integrin binding preference, in words (α5β1): bind preferentially to α5β1

NASIRAAHEVSQE [RAA]
solubility of the peptide, in words [1]: dissolved in molecular biology grade water
